pEC50: −log10 of the molar value. Structures can show the parent of a compound that is named as a salt.
Molecular target: T1, HiBit-labeled full length SHIP1 protein (Homo sapiens, UniProt Q92835)
T1 construct: thermal stability of a HiBit-labeled full length SHIP1 protein in intact cells; expressed in transfected cells; host or cells: HMC3 (stably transfected)
T1 sequence (Q92835 1-1189): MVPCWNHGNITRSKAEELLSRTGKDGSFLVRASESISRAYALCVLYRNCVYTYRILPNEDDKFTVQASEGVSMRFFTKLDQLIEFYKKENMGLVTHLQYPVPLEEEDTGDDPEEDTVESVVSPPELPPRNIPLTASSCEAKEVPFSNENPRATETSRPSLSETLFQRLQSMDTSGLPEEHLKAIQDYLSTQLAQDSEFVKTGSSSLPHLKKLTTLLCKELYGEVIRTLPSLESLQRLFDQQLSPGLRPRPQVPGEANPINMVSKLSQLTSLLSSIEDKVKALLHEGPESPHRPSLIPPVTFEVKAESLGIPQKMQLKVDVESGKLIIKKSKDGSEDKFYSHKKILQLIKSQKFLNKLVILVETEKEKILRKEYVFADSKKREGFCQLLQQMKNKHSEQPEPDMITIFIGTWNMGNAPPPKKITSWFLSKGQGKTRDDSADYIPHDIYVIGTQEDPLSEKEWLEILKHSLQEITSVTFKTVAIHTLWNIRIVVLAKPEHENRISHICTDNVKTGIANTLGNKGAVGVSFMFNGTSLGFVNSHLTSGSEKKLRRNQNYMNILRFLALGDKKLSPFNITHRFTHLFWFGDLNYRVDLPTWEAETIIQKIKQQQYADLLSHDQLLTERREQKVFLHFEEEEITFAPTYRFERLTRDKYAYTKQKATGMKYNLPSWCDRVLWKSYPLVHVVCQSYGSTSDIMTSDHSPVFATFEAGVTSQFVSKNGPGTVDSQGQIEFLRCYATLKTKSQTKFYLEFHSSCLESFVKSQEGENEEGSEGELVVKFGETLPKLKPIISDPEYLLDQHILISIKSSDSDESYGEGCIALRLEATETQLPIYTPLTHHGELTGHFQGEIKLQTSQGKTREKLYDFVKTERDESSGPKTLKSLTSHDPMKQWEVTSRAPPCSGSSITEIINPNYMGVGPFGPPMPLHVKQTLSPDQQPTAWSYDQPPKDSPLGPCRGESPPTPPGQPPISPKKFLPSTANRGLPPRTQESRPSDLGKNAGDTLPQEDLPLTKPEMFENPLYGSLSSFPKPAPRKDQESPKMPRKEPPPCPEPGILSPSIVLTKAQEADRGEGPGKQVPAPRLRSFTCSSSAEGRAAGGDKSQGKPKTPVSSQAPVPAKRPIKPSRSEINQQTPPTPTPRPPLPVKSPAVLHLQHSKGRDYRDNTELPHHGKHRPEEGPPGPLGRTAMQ
Experiment: Cellular thermal shift assay (SplitLuc CETSA), compound dose response
Type: cell-based
Conditions: HMC3/HiBit-INPP5D cells, 60 min, heated at 44.2° C.
Method: Cellular thermal shift assay (CETSA). […] This assay was run in the following two formats with HMC3/HiBit-INPP5D stably transfected cells.
2. Compound dose response: run at target Tm (44.2° C. for SHIP1) with compound dosing from 80 uM or 100 uM with 1:3 serial dilutions to generate an 8 point curve. Cells were treated for 60 min before being heated at target Tm for 3 min before luminescence detection. An AC50 was calculated using a four-parameter logistic curve regression model with change at highest concentration noted when difference from control >3SD, otherwise AC50 marked as “nc” for not calculated.
See Martinez et al. (2018) Sci Rep 8: p. 9472; Oh-Hashi et al. (2017) Biochem Biophys Rep 12: pp. 40-45. This assay was run in the following two formats with HMC3/HiBit-INPP5D stably transfected cells.
Compound dose response: run at target Tm (44.2° C. for SHIP1) with compound dosing from 80 uM or 100 uM with 1:3 serial dilutions to generate an 8-point curve. Cells were treated for 60 min before being heated at target Tm for 3 min before luminescence detection. The concentration that induced a half-maximum response (AC50) was calculated using a four-parameter logistic curve regression model with change at highest concentration noted when difference from control >3SD.

Row | Structure (SMILES) | CETSA Min Inhibition (%)
1 | O=C(OCc1ccccc1)N1CCC(n2cc(-c3cncc(OCc4ccccc4Cl)c3)cn2)CC1 [Compound 19, Benzyl 4-(4-(5-((2-chlorobenzyl)oxy)pyridin-3-yl)-1H-pyrazol-1-yl)piperidine-1-carboxylate] | 72.1

Molecular target: T2, SHIP1 (Homo sapiens, UniProt Q92835)
T2 sequence (Q92835 396-858): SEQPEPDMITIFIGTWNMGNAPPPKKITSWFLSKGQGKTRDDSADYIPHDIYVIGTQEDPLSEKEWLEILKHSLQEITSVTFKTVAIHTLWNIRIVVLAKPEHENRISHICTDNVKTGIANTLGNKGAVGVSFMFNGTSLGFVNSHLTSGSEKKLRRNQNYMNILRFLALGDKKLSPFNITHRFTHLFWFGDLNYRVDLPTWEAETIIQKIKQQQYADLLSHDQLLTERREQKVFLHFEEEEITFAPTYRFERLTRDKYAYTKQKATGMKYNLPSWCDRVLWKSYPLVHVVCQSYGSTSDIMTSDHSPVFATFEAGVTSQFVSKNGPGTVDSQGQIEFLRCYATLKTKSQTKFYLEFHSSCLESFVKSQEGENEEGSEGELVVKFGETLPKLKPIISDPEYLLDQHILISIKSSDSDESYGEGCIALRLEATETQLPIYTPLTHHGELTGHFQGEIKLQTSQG
Experiment: Malachite green enzyme assay
Type: biochemical
Conditions: Table 1; PI(3,4,5)P3-diC8 52 μM, enzyme 10 nM, SHIP1 Ptase-C2, 25° C., pH7.4; geometric mean; read-out: SHIP1 IC50 μM (n)
From the text: The inventors have performed a screen of 50K compounds at the SHIP1 phosphatase, analyzed a publicly available fragment-based screen, and evaluated inhibitors reported in the literature. They utilized the malachite green assay with PtdIns(3,4,5)P3-diC8 and SHIP1 Ptase-C2 to measure inhibitory potency. A Cellular Thermal Shift Assay was used to confirm target engagement in cells. A phosphoAKT assay was used to provide additional evidence of on-target activity. A high-content imaging assay measuring phagocytosis, cell number, and nuclear intensity was implemented using the BV2 and HMC3 cell lines to characterize cellular pharmacology and cytotoxicity. […] Inhibitors predicted to have drug-like properties were subjected to assays measuring solubility, cellular permeability, and mouse microsomal stability. A physiological based pharmacokinetic model was compared to measured exposure in vivo for select compounds upon oral administration in mice.
Malachite Green Enzyme Assay. […] Compounds diluted in DMSO were added to 384-well plates. Enzyme solution was added. After a 20 min incubation period, the reaction was initiated by addition of PI(3,4,5)P3-diC8. Final compound concentrations ranged from 50 nM to 950 μM. Final reaction concentrations for the PI(3,4,5)P3-diC8 substrate and the enzyme were 52 μM and 10 nM respectively. The reaction was quenched after 10 min by adding Malachite BioMol Green (Enzo Lifesciences, PA, USA). Plates were then incubated for 30 min at room temperature. Absorbance (620 nm) was measured using a SpectraMax Me5 Microplate Reader (Molecular Devices, LLC, USA). IC50 values were calculated by fitting absorbance versus inhibitor concentration.
Compounds diluted in DMSO were added to 384-well plates. Enzyme solution was added. After a 20 min incubation period, the reaction was initiated by addition of PI(3,4,5)P3-diC8. Final compound concentrations ranged from 50 nM to 950 μM. Final reaction concentrations for the PI(3,4,5)P3-diC8 substrate and the enzyme were 52 μM and 10 nM respectively. The reaction was quenched after 10 min by adding Malachite BioMol Green (Enzo Lifesciences, PA, USA). Plates were then incubated for 30 min at room temperature. Absorbance (620 nm) was measured using a SpectraMax Me5 Microplate Reader (Molecular Devices, LLC, USA). IC50 values were calculated by fitting absorbance versus inhibitor concentration and are reported as the geometric mean and standard error of mean with the number of repeats (n) indicated. Compounds and activities are as depicted in tables 1 and 2 above.

Row | Structure (SMILES) | IC50 [µM]
2 | CC(C)(C)OC(=O)N1CCC(n2cc(-c3cncc(OCc4ccc(Cl)cc4)c3)cn2)CC1 [Compound 6, tert-butyl 4-(4-(5-((4-chlorobenzyl)oxy)pyridin-3-yl)-1H-pyrazol-1-yl)piperidine-1-carboxylate] | 137
3 | CC(C)(C)OC(=O)N1CCC(n2cc(-c3cncc(OCc4ccc(Cl)cc4Cl)c3)cn2)CC1 [Compound 8, tert-butyl 4-(4-(5-((2,4-dichlorobenzyl)oxy)pyridin-3-yl)-1H-pyrazol-1-yl)piperidine-1-carboxylate] | 18.1
4 | Clc1ccc(COc2cncc(-c3cnn(C4CCNCC4)c3)c2)cc1 [Compound 11, 3-((4-chlorobenzyl)oxy)-5-(1-(piperidin-4-yl)-1H-pyrazol-4-yl)pyridine hydrochloride] | 109
5 | Brc1ccc(COc2cncc(-c3cnn(C4CCNCC4)c3)c2)cc1 [Compound 12, 3-((4-bromobenzyl)oxy)-5-(1-(piperidin-4-yl)-1H-pyrazol-4-yl)pyridine hydrochloride] | 29.7
6 | c1ccc(COc2cncc(-c3cnn(C4CCNCC4)c3)c2)cc1 [Compound 14, 3-(benzyloxy)-5-(1-(piperidin-4-yl)-1H-pyrazol-4-yl)pyridine trifluoroacetate] | 208
7 | COC(=O)N1CCC(n2cc(-c3cncc(OCc4ccccc4Cl)c3)cn2)CC1 [Compound 17, Methyl 4-(4-(5-((2-chlorobenzyl)oxy)pyridin-3-yl)-1H-pyrazol-1-yl)piperidine-1-carboxylate] | 133
8 | O=C(c1ccccc1)N1CCC(n2cc(-c3cncc(OCc4ccccc4Cl)c3)cn2)CC1 [Compound 18, (4-(4-(5-((2-chlorobenzyl)oxy)pyridin-3-yl)-1H-pyrazol-1-yl)piperidin-1-yl)(phenyl)methanone] | 99.2

Tested on: BV2 cells
Experiment: pHrodo-myelin phagocytosis/cell health assay, BV2 cells
Type: cell-based
Conditions: Mus musculus, BV-2, compound 48 hrs, 60 μM to 3 nM, (n) in cell
Method: pHrodo-myelin phagocytosis/cell health assay with microglial cells. This 384-well plate high content imaging assay was developed to quantify phagocytosis and cell health simultaneously using either BV2 or HMC3 immortalized microglial cell lines or primary microglia isolated from mouse brain. Cells were cultured in DMEM GlutaMax media (ThermoFisher) containing 10% FBS and Pen-Strep in 37° C. 5% CO2 incubator.
Day 1: Cells were plated (Corning Falcon 384 well Optilux Black and clear bottom plates for imaging) with BV2 at 400 cells/45 μl/well, HMC3 at 600 cells/45 μl/well, or primary at 2000 cell/45 μl/well.
Day 2: Cells were treated with 10× serially diluted compounds in a dose range of 60 μM to 3 nM for 48 hrs at 37° C.
Day 3: Cells were seeded with pHrodo-myelin (for total 20 hrs) 24 hrs after starting compound treatment. The pHrodo-myelin stocks were at 1 mg/ml (protein equivalent) stored in −20° C. or −80° C. freezer. Stocks were thawed and diluted with culture media into 10× seeding solution (50 μg/ml) and added 5 μl/well to 384 well cell plate.
Day 4: Cell staining and imaging. Nuclear staining solution was prepared by adding 1 μl of 10 mg/mL Hoechst-33342 to every 1 ml culture media that will be added to cell plate at 20 μl/well. The final concentration of Hoechst-33342 to cells was about 2.5 μg/ml. Cell plates were incubated for >30 min at 37° C. before imaging. Cell plates were scanned with an ArrayScan automatic high content imaging system using a 10× objective lens, 4 fields/well collected. Three measurements were obtained 1) mean total phagocytosis spot intensity per cell, 2) total cell counts per well, and 3) mean average nuclear intensity per cell for cell health.
This 384-well plate high content imaging assay was developed to quantify phagocytosis and cell health simultaneously using either BV2 or HMC3 immortalized microglial cell lines or primary microglia isolated from mouse brain. Cells were cultured in DMEM GlutaMax media (ThermoFisher) containing 10% FBS and Pen-Strep in 37° C. 5% CO2 incubator. Day 1: Cells were plated (Corning Falcon 384 well Optilux Black and clear bottom plates for imaging) with BV2 at 400 cells/45 μl/well, HMC3 at 600 cells/45 μl/well, or primary at 2000 cell/45 μl/well. Day 2: Cells were treated with 10× serially diluted compounds in a dose range of 60 μM to 3 nM for 48 hrs at 37° C. Day 3: Cells were seeded with pHrodo-myelin (for total 20 hrs) 24 hrs after starting compound treatment. The pHrodo-myelin stocks were at 1 mg/ml (protein equivalent) stored in −20° C. or −80° C. freezer. Stocks were thawed and diluted with culture media into 10× seeding solution (50 μg/ml) and added 5 μl/well to 384 well cell plate. Day 4: Cell staining and imaging. Nuclear staining solution was prepared by adding 1 μl of 10 mg/mL Hoechst-33342 to every 1 ml culture media that will be added to cell plate at 20 μl/well. The final concentration of Hoechst-33342 to cells was about 2.5 μg/ml. Cell plates were incubated for >30 min at 37° C. before imaging. Cell plates were scanned with an ArrayScan automatic high content imaging system using a 10× objective lens, 4 fields/well collected. Three measurements were obtained 1) mean total phagocytosis spot intensity per cell, 2) total cell counts per well, and 3) mean average nuclear intensity per cell for cell health.

Row | Structure (SMILES) | pEC50
9 | O=C(OCc1ccccc1)N1CCC(n2cc(-c3cncc(OCc4ccccc4Cl)c3)cn2)CC1 [Compound 19, Benzyl 4-(4-(5-((2-chlorobenzyl)oxy)pyridin-3-yl)-1H-pyrazol-1-yl)piperidine-1-carboxylate] | 6.02

Source: patent publication US20260242352A1, “INHIBITION OF SHIP1 AS A THERAPEUTIC STRATEGY FOR THE TREATMENT OF ALZHEIMER'S DISEASE” (The Trustees of Indiana University, priority 2022, published 2026)
